Measured values taken from US20240285599A1, “Mature-Hepatocyte Transdifferentiation Suppressing Composition” (OSAKA UNIVERSITY, priority 2021, published 2024).

Key:
[1] = system: human cholangiocarcinoma cell line HuCCT1; experiment: Cell proliferation assay (IncuCyte) of cholangiocarcinoma cell line HuCCT1; format: cell-based
Description: A human hepatoma cell line HepG2, and human cholangiocarcinoma cell lines HuCCT1, HuCCA1, and KKU213 were obtained from the JCRB Cell Bank. The HepG2 and KKU213 cells were cultured in a Dulbecco's modified Eagle's medium (DMEM; Nacalai Tesque, Inc., Japan) having added thereto 10% heat-inactivated fetal calf serum (FCS; Gibco, USA). The HuCCT1 cells were cultured in an RPMI medium (Nacalai Tesque, Inc., Japan) containing 10% FCS. The HuCCA1 cells were cultured in D-MEM/Ham's F-12 (containing L-glutamine and phenol red) (Wako Pure Chemical Industries, Ltd., Japan) having added thereto 10% FCS. All the cells were cultured with a CO2 incubator at 37° C. The cells were detached with trypsin (Nacalai Tesque, Inc., Japan), and were passaged. Those cells were routinely examined for mycoplasma.
The transfection of siRNA or a plasmid into cells was performed with Lipofectamine RNAiMAX Transfection Reagent (Thermo Fisher Scientific, Inc., USA) or Lipofectamine 2000 (Thermo Fisher Scientific, Inc., USA), respectively, and with Opti-MEM (Thermo Fisher Scientific, Inc., USA). The transfection of the siRNA was performed as follows: the cells were dispersed at a concentration of 100,000 cells/mL; 10 μM of the siRNA was mixed into 100 μL of the Opti-MEM at a ratio of 1 μL, and the mixture was left at rest for 5 minutes; and then 3 μL of the RNAiMAX was mixed into the mixture, and the whole was left at rest for 15 minutes, followed by administration to the supernatant of the previously dispersed cells. Further, a medium change was performed 24 hours thereafter.
(§1) Hepatocytes or cholangiocarcinoma cells were inoculated on a 96-well plate, and their cell proliferation was analyzed with IncuCyte (trademark) Si (Sartorius AG, Germany) in accordance with the manufacturer's instructions.
Two kinds of NIK siRNA (the NIK KD #1 and the NIK KD #2) were introduced into each of human cholangiocarcinoma cell lines HuCCT1, HuCCA1, and KKU213 to knock down MAP3K14 (NIK). […]

[2] = system: TRAF3/PTEN knockdown HepG2 cell; experiment: Cell proliferation assay (IncuCyte) of TRAF3/PTEN knockdown HepG2; format: cell-based, human
Description: as §1
Specifically, 24 hours after the start of the culture of each of the PTKD #1HepG2 and the PTKD #1PHH obtained in Test Example 5, NIKSMI described above was added at a concentration of 9 μM. 48 Hours after that, the cells were recovered, and the mRNA of KRT19 was quantified, followed by immunoblotting.
Specifically, the NIK KD #1 or the NIK KD #2 was transfected into the PTKD #1HepG2 and the PTKD #1PHH obtained in Test Example 5 to provide a PTKDNIK #1 and a PTKDNIK #2, respectively. 72 Hours after the start of the culture of each of the cells, the cell was recovered, and the mRNA of KRT19 was quantified, followed by immunoblotting.
The above-mentioned cell proliferation analysis and the production of the cell growth curves were performed with IncuCyte (trademark).

[3] = NIK siRNA transfected, cell growth curve FIG. 14B

| Molecule | proliferation of cholangiocarcinoma cells ([1]; 9 μM or 15 μM added at beginning of culture, FIG. 21A) | increase in proliferation rate of the HepG2 cell by knockdown of TRAF3 and PTEN ([2]; NIKSMI 9 μM, cell growth curve FIG. 14A) | proliferation of cholangiocarcinoma cells ([1]; NIK siRNA introduced, FIG. 18) | increase in proliferation rate of the HepG2 cell by knockdown of TRAF3 and PTEN [2, 3] |
| --- | --- | --- | --- | --- |
| COc1cc(C(N)=O)nc(-c2cccc(C#C[C@]3(O)CCN(C)C3=O)c2)c1 [NIKSMI, (R)-6-(3-((3-hydroxy-1-methyl-2-oxopyrrolidin-3-yl)ethynyl)phenyl)-4-methoxypicolinamide] | significantly suppressed | blocked |  |  |
| NIK KD #1: siRNA of NIK, SEQ ID NO: 2 (sense) and 3 (antisense), from Thermo Fisher Scientific (sense CAAACGCAAAGAGCAAGAAUU; antisense UUCUUGCUCUUUGCGUUUGCA; listed as RNA, chemistry not given here) |  |  | significantly suppressed | blocked |
| NIK KD #2: siRNA of NIK, SEQ ID NO: 4 (sense) and 5 (antisense), from Thermo Fisher Scientific (sense GCAAAGAGCAAGAACCAAAUU; antisense UUUGGUUCUUGCUCUUUGCGU; listed as RNA, chemistry not given here) |  |  | significantly suppressed | blocked |
